Reference: ChEMBL document CHEMBL1141344, “Variation in cytostatic constituents of a sponge-derived Gymnascella dankaliensis by manipulating the carbon source” (2007)
≈ marks a conversion by molar mass, not a printed value.

Key:
Type in all cases: functional
[1] = test system: P388; assay: Growth inhibition of mouse P388 cells; settings: read-out: ED50 (the source's name)
[2] = test system: DMS-114; assay: Cytotoxicity against human DMS114 cells
[3] = test system: MCF7; assay: Cytotoxicity against human MCF7 cells
[4] = test system: SF-268; assay: Cytotoxicity against human SF268 cells
[5] = test system: NCI-H23; assay: Cytotoxicity against human NCI-H23 cells
[6] = test system: MDA-MB-231; assay: Cytotoxicity against human MDA-MB-231 cells
[7] = Cytotoxicity against human RXF631L cells; settings: RXF 631
[8] = test system: SNB-78; assay: Cytotoxicity against human SNB78 cells
[9] = test system: SNB-75; assay: Cytotoxicity against human SNB75 cells
[10] = test system: MKN-28; assay: Cytotoxicity against human MKN28 cells
[11] = test system: NCI-H226; assay: Cytotoxicity against human NCI-H226 cells
[12] = Cytotoxicity against human HBC4 cells
[13] = test system: LOX IMVI; assay: Cytotoxicity against human LOX IMVI cells
[14] = test system: OVCAR-4; assay: Cytotoxicity against human OVCAR4 cells
[15] = test system: ACHN; assay: Cytotoxicity against human ACHN cells
[16] = test system: MKN-7; assay: Cytotoxicity against human MKN7 cells
[17] = test system: MKN-74; assay: Cytotoxicity against human MKN74 cells
[18] = Cytotoxicity against human BSY1 cells; settings: BSY-1
[19] = test system: NCI-H460; assay: Cytotoxicity against human NCI-H460 cells
[20] = test system: St-4; assay: Cytotoxicity against human St4 cells
[21] = test system: A549; assay: Cytotoxicity against human A549 cells
[22] = test system: U-251; assay: Cytotoxicity against human U251 cells
[23] = test system: MKN-45; assay: Cytotoxicity against human MKN45 cells
[24] = test system: OVCAR-3; assay: Cytotoxicity against human OVCAR-3 cells
[25] = test system: DU-145; assay: Cytotoxicity against human DU145 cells
[26] = test system: SF-539; assay: Cytotoxicity against human SF539 cells
[27] = test system: OVCAR-8; assay: Cytotoxicity against human OVCAR8 cells
[28] = test system: PC-3; assay: Cytotoxicity against human PC3 cells
[29] = Cytotoxicity against human MKN1 cells; settings: MKN-1
[30] = test system: HT-29; assay: Cytotoxicity against human HT29 cells
[31] = test system: SF-295; assay: Cytotoxicity against human SF295 cells
[32] = test system: SK-OV-3; assay: Cytotoxicity against human SKOV3 cells
[33] = Cytotoxicity against human HBC5 cells
[34] = test system: HCC 2998; assay: Cytotoxicity against human HCC2998 cells
[35] = test system: NCI-H522; assay: Cytotoxicity against human NCI-H522 cells
[36] = test system: HCT-15; assay: Cytotoxicity against human HCT15 cells
[37] = test system: OVCAR-5; assay: Cytotoxicity against human OVCAR5 cells
[38] = test system: HCT-116; assay: Cytotoxicity against human HCT116 cells
[39] = test system: KM12; assay: Cytotoxicity against human KM12 cells
[40] = test system: DMS-273; assay: Cytotoxicity against human DMS273 cells

| Structure (SMILES) | EC50 [1] [µg/mL] | GI50 [2] [µM] | GI50 [3] [µM] | GI50 [4] [µM] | GI50 [5] [µM] | GI50 [6] [µM] | GI50 [7] [µM] | GI50 [8] [µM] | GI50 [9] [µM] | GI50 [10] [µM] | GI50 [11] [µM] | GI50 [12] [µM] | GI50 [13] [µM] | GI50 [14] [µM] | GI50 [15] [µM] | GI50 [16] [µM] | GI50 [17] [µM] | GI50 [18] [µM] | GI50 [19] [µM] | GI50 [20] [µM] | further results |
| --- | --- | --- | --- | --- | --- | --- | --- | --- | --- | --- | --- | --- | --- | --- | --- | --- | --- | --- | --- | --- | --- |
| CC(C)[C@@H](C)/C=C/[C@@H](C)[C@H]1CCC(=O)[C@]23CC(=O)[C@@H]4CC(=O)CC[C@]4(C)[C@H]2CC[C@]13C [DANKASTERONE B] | 2.8 (≈ 6.56 µM) |  |  |  |  |  |  |  |  |  |  |  |  |  |  |  |  |  |  |  |  |
| CC(C)[C@@H](C)/C=C/[C@@H](C)[C@H]1CC(=O)C2=C3C=CC4=C[C@@H](O)CC[C@]4(C)[C@H]3CC[C@@]21C [GYMNASTERONE C] | 0.9 (≈ 2.2 µM) |  |  |  |  |  |  |  |  |  |  |  |  |  |  |  |  |  |  |  |  |
| CC(C)[C@@H](C)/C=C/[C@@H](C)[C@H]1CC(=O)C2=C3C=CC4=CC(=O)CC[C@]4(C)[C@H]3CC[C@@]21C [GYMNASTERONE D] | 2.5 (≈ 6.15 µM) |  |  |  |  |  |  |  |  |  |  |  |  |  |  |  |  |  |  |  |  |
| CC(C)[C@@H](C)/C=C/[C@@H](C)[C@H]1CCC(=O)[C@]23CC(=O)C4=CC(=O)CC[C@]4(C)[C@H]2CC[C@]13C [DANKASTERONE A] | 2.2 (≈ 5.18 µM) | 1.7 | 3.72 | 2.82 | 3.8 | 5.89 | 15.8 | 3.02 | 4.27 | 3.98 | 3.8 | 4.37 | 2.19 | 2.4 | 2.4 | 4.57 | 4.37 | 2.19 | 11 | 12.9 | GI50 [21]: 14.1 µM; GI50 [22]: 3.72 µM; GI50 [23]: 11 µM; GI50 [24]: 2 µM; GI50 [25]: 4.07 µM; GI50 [26]: 2.09 µM; GI50 [27]: 3.63 µM; GI50 [28]: 5.62 µM; GI50 [29]: 1.82 µM; GI50 [30]: 8.13 µM; GI50 [31]: 3.72 µM; GI50 [32]: 15.8 µM; GI50 [33]: 3.31 µM; GI50 [34]: 1.91 µM; GI50 [35]: 2.51 µM; GI50 [36]: 2.51 µM; GI50 [37]: 2.29 µM; GI50 [38]: 2.29 µM; GI50 [39]: 3.72 µM; GI50 [40]: 1.7 µM |
| CC(C)[C@@H](C)/C=C/[C@@H](C)[C@H]1C[C@H]2O[C@]23C2=CC(=O)[C@@H]4CC(=O)CC[C@]4(C)[C@H]2CC[C@]13C [GYMNASTERONE B] | 1.6 (≈ 3.77 µM) | 12.9 | 33.9 | > 100 | 70.8 | 33.1 | > 100 | > 100 | 56.2 | 60.3 | 41.7 | > 100 | 87.1 | 49 | > 100 | 47.9 | 83.2 | 15.1 | > 100 | > 100 | GI50 [21]: > 100 µM; GI50 [22]: > 100 µM; GI50 [23]: 72.4 µM; GI50 [24]: 66.1 µM; GI50 [25]: 28.8 µM; GI50 [26]: > 100 µM; GI50 [27]: 67.6 µM; GI50 [28]: 89.1 µM; GI50 [29]: 45.7 µM; GI50 [30]: 30.2 µM; GI50 [31]: 36.3 µM; GI50 [32]: > 100 µM; GI50 [33]: 26.9 µM; GI50 [34]: 51.3 µM; GI50 [35]: 26.9 µM; GI50 [36]: 69.2 µM; GI50 [37]: 44.7 µM; GI50 [38]: 95.5 µM; GI50 [39]: 67.6 µM; GI50 [40]: 41.7 µM |
| CCCCCC[C@H](C)/C=C(C)/C=C/C(=O)N[C@]1(C=O)C[C@H]2C[C@H]([C@H](C)/C=C/[C@H](C)C(C)C)[C@@]3(C)CC[C@H]4C(=C1C(=O)C1=C[C@@H](O)CC[C@@]14C)[C@@]23O [GYMNASTERONE A] |  | 72.4 | 58.9 | 21.9 | > 100 | > 100 | 12.9 | 12.9 | > 100 | > 38 | 28.2 | > 100 | > 100 | 67.6 | > 100 | 53.7 | 28.2 | > 100 | > 100 | > 100 | GI50 [21]: > 100 µM; GI50 [22]: > 100 µM; GI50 [23]: > 100 µM; GI50 [24]: 39.8 µM; GI50 [25]: > 100 µM; GI50 [26]: 50.1 µM; GI50 [27]: > 100 µM; GI50 [28]: > 100 µM; GI50 [29]: > 75.9 µM; GI50 [30]: > 100 µM; GI50 [31]: 87.1 µM; GI50 [32]: > 100 µM; GI50 [33]: > 91.2 µM; GI50 [34]: > 100 µM; GI50 [35]: 28.2 µM; GI50 [36]: > 100 µM; GI50 [37]: > 100 µM; GI50 [38]: > 100 µM; GI50 [39]: > 100 µM; GI50 [40]: > 100 µM |
